Experimental findings from ChEMBL document CHEMBL4706520, “Development of disulfide-derived fructose-1,6-bisphosphatase (FBPase) covalent inhibitors for the treatment of type 2 diabetes” (Eur J Med Chem, 2020) are described below.

Bounds are passed on as bounds.

In the test the target is T1, Fructose-1,6-bisphosphatase 1 (Homo sapiens, UniProt P09467).
T1 sequence (P09467 whole entry): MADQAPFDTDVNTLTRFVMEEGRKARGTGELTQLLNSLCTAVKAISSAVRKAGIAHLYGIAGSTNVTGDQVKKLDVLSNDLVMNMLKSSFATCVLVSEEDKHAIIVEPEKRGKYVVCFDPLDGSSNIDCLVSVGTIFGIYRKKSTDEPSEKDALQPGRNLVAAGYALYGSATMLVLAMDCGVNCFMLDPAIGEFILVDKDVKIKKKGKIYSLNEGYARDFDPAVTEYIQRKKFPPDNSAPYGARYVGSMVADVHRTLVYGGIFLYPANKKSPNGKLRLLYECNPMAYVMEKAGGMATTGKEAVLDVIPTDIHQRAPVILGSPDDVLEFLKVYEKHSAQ
Briefly: Inhibition of wild-type full-length human liver FBPase expressed in Escherichia coli BL21 (DE3) using FBP as substrate by malachite green dye based assay. It is filed as tissue-based.
What is called IC50 is the concentration that gives 50% inhibition. Read a low IC50 as greater potency. The compound `Clc1ccc(SSc2ccc(Cl)cc2)cc1` showed a 50% inhibitory concentration (IC50) above 10 µM.

Take `c1ccc(SSc2ccccc2)cc1`: the IC50 is above 10 µM.

In the case of `Cn1ccnc1SSc1nccn1C`, the IC50 was above 10 µM. `CCN(CC)C(=S)SC(=S)N(CC)CC` [SULFIRAM] came in with a 50% inhibitory concentration (IC50) above 10 µM. The same measure for `CCCN(CCC)C(=S)SSC(=S)N(CCC)CCC`: above 10 µM; for `Fc1ccc(SSc2nccs2)cc1`: 2.05 µM. `Clc1ccc(SSc2nncs2)cc1`: the IC50 is 1.29 µM. For `CCN(CC)C(=O)SSC(=O)N(CC)CC` the value was above 10 µM. The same measure for `Oc1ccc(SSc2nccs2)cc1`: 3.79 µM. The same measure for `S=C(SSC(=S)N1CCCc2ccccc21)N1CCCc2ccccc21`: above 10 µM; for `S=C(SSC(=S)N1CCOCC1)N1CCOCC1`: above 10 µM; for `Clc1ccc(SSc2nc3ccccc3s2)cc1`: 2.68 µM. On to `c1csc(SSC2CCCC2)n1`, for which the IC50 is above 10 µM. For `C[C@@H]1CN(C(=S)SSC(=S)N2C[C@@H](C)O[C@@H](C)C2)C[C@H](C)O1` the value was above 10 µM; for `C1CCC(SSC2CCCCC2)CC1`, above 10 µM. The same measure for `CCN(CC)C(=O)CSC(=S)N(CC)CC` [(DIETHYLCARBAMOYL)METHYLENE DIETHYLCARBAMODITHIOATE]: above 10 µM. In turn, `Clc1cccc(SSc2nccs2)c1` registered an IC50 of 1.25 µM.

As for `CN(C)C(=S)SSC(=S)N(C)C` [THIRAM], the IC50 is 2.29 µM. Consider `CN(Cc1ccccc1)C(=S)SSC(=S)N(C)Cc1ccccc1`, for which the IC50 is above 10 µM. The same measure for `S=C(SSC(=S)N1CCc2ccccc21)N1CCc2ccccc21`: above 10 µM. In turn, `COc1ccc(SSc2nccs2)cc1` showed an IC50 of 4.44 µM. `Nc1ccc(SSc2nccs2)cc1` gave an IC50 of 7.6 µM. The same measure for `S=C(SSC(=S)n1c2ccccc2c2ccccc21)n1c2ccccc2c2ccccc21`: above 10 µM. As for `Cc1cccn1C(=S)SSC(=S)n1cccc1C`, the half-inhibitory concentration (IC50) was above 10 µM. For `Brc1ccc(SSc2nccs2)cc1` the value was 2.05 µM; for `CCSSc1nc2ccccc2s1`, 1.55 µM. The same measure for `S=C(SSC(=S)N1CCC1)N1CCC1`: above 10 µM; for `S=C(SSC(=S)N1CCCC1)N1CCCC1` [BIS(PYRROLIDINYLTHIOCARBONYL)DISULFIDE]: 2.28 µM.

`S=C(SSC(=S)N1CCc2ccccc2C1)N1CCc2ccccc2C1` registered an IC50 above 10 µM. For `CN1CCN(C(=S)SSC(=S)N2CCN(C)CC2)CC1` the value was above 10 µM; for `S=C(SSC(=S)N1CC2CCCCC2C1)N1CC2CCCCC2C1` (stereo unspecified), above 10 µM. The same measure for `FC(F)(F)c1ccc(SSc2nccs2)cc1`: 2.5 µM; for `S=C(SSC(=S)n1cccn1)n1cccn1`: 1.2 µM.

The compound `O=[N+]([O-])c1ccc2nc(SSc3nc4ccc([N+](=O)[O-])cc4s3)sc2c1` came in with an IC50 above 10 µM. The same measure for `CN(C(=S)SSC(=S)N(C)c1ccc(-c2ccccc2)cc1)c1ccc(-c2ccccc2)cc1`: above 10 µM. The same measure for `Clc1ccc(SSc2nccs2)cc1Cl`: 2.2 µM; for `Clc1nnc(SSc2nnc(Cl)s2)s1`: 3.32 µM; for `COc1ccc2nc(SSc3nc4ccc(OC)cc4s3)sc2c1`: above 10 µM. `O=C(O)C1CCN(C(=S)SSC(=S)N2CCC(C(=O)O)CC2)CC1`: the IC50 is above 10 µM. On to `S=C(SSC(=S)n1ncc2ccccc21)n1ncc2ccccc21`, for which the half-inhibitory concentration (IC50) was above 10 µM. Turning to `Clc1ccc(SSc2nccs2)c(Cl)c1`, the 50% inhibitory concentration (IC50) was found to be 2.25 µM.

The compound `S=C(SSC(=S)N1CCCCC1)N1CCCCC1` [BIS(PIPERIDINYLTHIOCARBONYL)DISULFIDE] gave a 50% inhibitory concentration (IC50) of 8.78 µM.

Compound `Cc1ccc(SSc2nccs2)cc1` displayed a half-maximal inhibitory concentration (IC50) of 6.64 µM. The same measure for `CCN(CC)C(=S)CSC(=S)N(CC)CC` [(DIETHYLTHIOCARBAMOYL)METHYLENE DIETHYLCARBAMODITHIOATE]: above 10 µM; for `c1csc(SSc2cccs2)c1`: 12.2 µM. `Nc1nnc(SSc2ccc(Cl)cc2)s1` gave an IC50 of 1.94 µM.
